US12258337B2, “Bicyclic CX3CR1 receptor agonists” (Board of Regents, The University of Texas System, priority 2019, dated 2025)
Each block holds one molecule with its values, some of them ahead of it.

Columns and labels:
Assay type in all cases: cell-based
hCX3CR1 [1] = biological target: T1, hCX3CR1 (Homo sapiens, UniProt P49238); assay: ChAMPion assay (CHO ChAMPion/CX3CR1 K1.6, cAMP/CNG channel, photoprotein luminescence); parameters: expressed in transfected cells; stably expresses a Ca2+ sensitive photo-protein; conditions: ChAMPion assay, CHO ChAMPion/CX3CR1 K1.6, Forskolin 3 μM; read-out: hCX3CR1 agonism EC50
T1 sequence (P49238 1-355): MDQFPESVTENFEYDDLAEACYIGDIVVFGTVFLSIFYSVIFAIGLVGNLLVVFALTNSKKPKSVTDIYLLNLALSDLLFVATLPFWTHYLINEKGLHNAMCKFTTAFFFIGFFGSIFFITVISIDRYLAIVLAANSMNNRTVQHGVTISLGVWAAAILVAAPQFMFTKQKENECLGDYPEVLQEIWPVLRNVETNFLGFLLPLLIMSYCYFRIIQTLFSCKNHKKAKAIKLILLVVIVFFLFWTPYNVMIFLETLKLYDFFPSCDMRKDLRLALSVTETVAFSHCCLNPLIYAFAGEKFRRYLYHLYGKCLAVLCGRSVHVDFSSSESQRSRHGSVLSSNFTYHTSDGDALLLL
Experimental: Buffers and reagents. PBS (D-PBS without calcium and magnesium; EuroClone); Trypsin (Trypsin 0.05%, EDTA 0.02% in PBS; EuroClone); DMSO (Sigma); Tyrode buffer Ca^2+ free: in-house solution (130 mM NaCl, 5 mM KCl, 1 mM MgCl^2, 5 mM NaHCO3, 20 mM HEPES (pH 7.4); sterile filtered and autoclaved); Tyrode buffer 10 mM Ca^2+: in-house solution (130 mM NaCl, 5 mM KCl, 10 mM CaCl2), 1 mM MgCl2, 5 mM NaHCO3, 20 mM HEPES, in water at pH 7.4, sterile filtered); Coelenterazine, native (Biosynth); stock 10 mM; Agonist: Recombinant Human Fractalkine (CX3CL1) (PeproTech); stock: 10 μM in standard Tyrode buffer/BSA 01%; stored at −20° C.
Cell line. The final clone for the hCX3CR1 assay was CHO ChAMPion/CX3CR1 K1.6. ChAMPion technology is based on the co-expression of a Ca^2+ sensitive photoprotein and of a cyclic nucleotide-gated (CNG) channel acting as a cAMP biosensor in a CHO-K1 cell line. CNG channels are non-selective ligand gated cation channels that can be opened by the direct interaction with either cAMP or cGMP, at the intracellular C-terminus site of the channel. Channel opening allows the flux of extracellular calcium into the cell cytoplasm and its transient elevation can be recorded by means of several different calcium indicators. In the chAMPion system, the CNG channel has been modified to display sensitivity to cAMP levels in the physiological range. In addition the calcium influx through the opened channel is immediately detected by the recording of the photoprotein-emitted flash type luminescence signal.
The chAMPion cell line system can monitor the activation of transfected Gαi-coupled receptors, which elicit changes in 3,‘5’-adenosine cyclic monophosphate (cAMP) levels, which in turn is responsible for CNG opening and consequent Ca^2+ influx.
Assay protocol. Experiments were performed in 384 MTP format. Cells were seeded at 10,000 cells/well in 25 μL/well complete growth medium without selection antibiotics in 384-well plates. Twenty-four hours later, cells were assayed for the response to various compounds using the Ca^2+ sensitive photo-protein stably expressed in the cells as readout.
The experiment was performed in a 384-well format according to the following procedure: • 24h after seeding, pre-incubate the cells at room temperature for 1 hour. • Then remove the culture medium. • Load cells with 20 μL/well of Ca^2+ free tyrode buffer+ceolenterazine 5 μM. • Incubate cell plates for 4 hours at RT. • 10 μl/well of 3× concentrated compounds in Ca^2+ free tyrode buffer+Forskolin 9 μM (final Forskolin concentration=3 μM) are applied to the cells (at 10 μl/s). Ten minutes later a second injection is performed: 10 μl/well of Ca^2+ free tyrode buffer+BSA 0.04% (final BSA concentration=0.01%). Twenty minutes later a third injection is performed: 20 μl/well of 10 mM Ca^2+ tyrode buffer (final Ca^2+ concentration was 3.3 mM) and luminescence is recorded for 90 seconds.
Data from FLIPRTETRA measurements are analyzed with the Genedata Screener© software.

rCX3CR1 = biological target: T2, rCX3CR1 (Rattus norvegicus, UniProt P35411); assay: Ga16 assay, CX3CR1 agonism, Ca2+ sensitive photo-protein readout (FLIPRTETRA); conditions: rat CX3CR1 cell line
T2 construct: expressed in transfected cells; stably expresses a Ca2+ sensitive photo-protein
T2 sequence (P35411 1-354): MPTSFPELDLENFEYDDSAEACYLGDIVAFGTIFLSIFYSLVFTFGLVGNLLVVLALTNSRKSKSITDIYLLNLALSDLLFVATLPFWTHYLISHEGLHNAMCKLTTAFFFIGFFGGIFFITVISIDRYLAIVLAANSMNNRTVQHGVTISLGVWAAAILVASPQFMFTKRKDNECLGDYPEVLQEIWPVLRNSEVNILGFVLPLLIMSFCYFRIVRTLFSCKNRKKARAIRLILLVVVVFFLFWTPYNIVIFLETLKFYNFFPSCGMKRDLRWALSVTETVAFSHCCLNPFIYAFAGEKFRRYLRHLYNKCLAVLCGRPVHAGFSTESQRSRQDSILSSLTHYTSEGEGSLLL
In short: (§1)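 Cells expressing human, mouse or rat CX3CR1 with a stably expressed Ca2+-sensitive photoprotein were loaded with 10 μM coelenterazine in tyrode buffer pH 7.4 for 3 h at room temperature. Agonist-mode luminescence kinetics were recorded for 90 s after compound injection on FLIPRTETRA. Dose-response runs were done in quadruplicate, with fractalkine as the reference agonist.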

mCX3CR1 = biological target: T3, mCX3CR1 (Mus musculus, UniProt Q9Z0D9); assay: as above; conditions: mouse CX3CR1 cell line
T3 construct: expressed in transfected cells; stably expresses a Ca2+ sensitive photo-protein
T3 sequence (Q9Z0D9 1-354): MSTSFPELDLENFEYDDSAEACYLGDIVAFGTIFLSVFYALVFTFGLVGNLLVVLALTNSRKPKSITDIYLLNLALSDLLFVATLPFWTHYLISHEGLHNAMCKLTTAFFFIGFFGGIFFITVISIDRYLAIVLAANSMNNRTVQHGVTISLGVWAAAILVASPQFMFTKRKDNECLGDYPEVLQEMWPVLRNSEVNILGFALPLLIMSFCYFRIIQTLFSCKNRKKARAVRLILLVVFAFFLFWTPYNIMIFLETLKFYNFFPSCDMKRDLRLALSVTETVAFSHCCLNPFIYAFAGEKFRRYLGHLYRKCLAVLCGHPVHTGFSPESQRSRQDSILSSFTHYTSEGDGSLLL
In short: as §1

hCX3CR1 [2] = biological target: T1, hCX3CR1; assay: as above; parameters: expressed in transfected cells; stably expresses a Ca2+ sensitive photo-protein; conditions: human CX3CR1 cell line
In short: as §1

primary human monocytes = assay: Chemotaxis assay, transwell migration of primary human monocytes; conditions: 4 hours, CellTiter-Glo, FIG. 2
Experimental: Primary Human Monocytes Migrate Along a Chemotactic Gradient towards CX3CR1 Agonists
The chemotaxis assay assesses the CX3CR1-dependent migration of primary human monocytes towards fractalkine and active CX3CR1 agonists. To determine the migration index, monocytes were positively selected from freshly isolated human PBMCs and seeded at 50,000 cells per insert, on the upper chamber of a transwell plate with a pore size of 5 μm. […] Monocytes were allowed to migrate for 4 hours, and subsequently detected in the lower chamber with the CellTiter-Glo Assay, which measures metabolically active cells.

EC50 (hCX3CR1 [1]): 5.5 µM
EC50 (rCX3CR1): 20.4 µM
EC50 (mCX3CR1): 33.6 µM
EC50 (hCX3CR1 [2]): 18 µM
Molecule: O=C(NCC1(CN2C[C@H]3CCO[C@@H]3C2)CCCC1)c1cc2c(s1)CCCCCC2 [Example 69, N-[[1-[[(3aR,6aS)-2,3,3a,4,6,6a-hexahydrofuro[2,3-c]pyrrol-5-yl]methyl]cyclopentyl]methyl]-4,5,6,7,8,9-hexahydrocycloocta[b]thiophene-2-carboxamide]

B1: fractalkine: recombinant human fractalkine (CX3CL1), large membrane-anchored or secreted cytokine, ligand of CX3CR1 (protein, UniProt P78423 25-397, looked up)
Fractalkine: QHHGVTKCNITCSKMTSKIPVALLIHYQQNQASCGKRAIILETRQHRLFCADPKEQWVKDAMQHLDRQAAALTRNGGTFEKQIGEVKPRTTPAAGGMDESVVLEPEATGESSSLEPTPSSQEAQRALGTSPELPTGVTGSSGTRLPPTPKAQDGGPVGTELFRVPPVSTAATWQSSAPHQPGPSLWAEAKTSEAPSTQDPSTQASTASSPAPEENAPSEGQRVWGQGQSPRPENSLEREEMGPVPAHTDAFQDWGPGSMAHVSVVPVSSEGTPSREPVASGSWTPKAEEPIHATMDPQRLGVLITPVPDAQAATRRQAVGLLAFLGLLFCLGVAMFTYQSLQGCPRKMAGEMAEGLRYIPRSCGSNSYVLVPV
migration of primary human monocytes towards substance (chemotaxis) (primary human monocytes): monocytes migrated towards fractalkine
